{"source": "paper PMC9586926", "about": "“An efflux-susceptible antibiotic-adjuvant with systemic efficacy against mouse infections” (Scientific Reports, 2022)", "key": {"[1]": {"tested_on": "S. Typhimurium 14028 (wild-type)", "assay": "MIC, broth microdilution, wild-type strain", "assay_type": "cell-based, Salmonella enterica serovar Typhimurium", "description": "(§1) Bacteria used in this study consisted of standard American Type Culture Collection (ATCC; Biological Industries, Beit Haemek, Israel) strains, clinically isolated (CI; Sourasky Medical Center, Tel Aviv, Israel) strains, as well as isogenic mutant strains. Gram-negative bacteria included Acinetobacter baumannii ATCC 19606; Escherichia coli ATCC 25922, 35218, CFT073, CI 14384, 16327, and the isogenic pair Ag100 (wild-type) and its efflux deficient mutant Ag100a (ΔacrAB); Klebsiella pneumoniae CI 1287, 224; Pseudomonas aeruginosa ATCC 27853, CI 1278, 8634; Salmonella enterica serovar Typhimurium ATCC 14028 (wild-type) and its isogenic efflux deficient mutant ΔacrAB. Bacteria were grown in Luria–Bertani broth (LB; 5 g/l NaCl, 5 g/l yeast extract, 10 g/l tryptone; pH = 7.0) at 37 °C with shaking. Over-night cultures were diluted 10-folds into fresh growth-medium and incubated at 37 °C with shaking until reaching mid-logarithmic phase. Then, bacterial concentrations were adjusted using O.D.600 nm measurements, and bacteria were subjected to the experimental procedures listed herein.\n(§2) MIC was determined according to the broth microdilution method: antimicrobials were subjected to serial twofold dilutions in LB medium, and incubated with 5 × 10^5 CFU/ml of bacteria (final volume of 200 µl) for 18–24 h at 37 °C. […]"}, "E. coli 25922 [2]": {"tested_on": "E. coli 25922", "assay": "Cytoplasmic membrane depolarization, DiSC3(5) fluorescence", "assay_type": "cell-based, Escherichia coli", "conditions": "C10BBc12B up to 10 µM; PMB 2.5 µM", "procedure": "Lipopeptides aptitude to depolarize the CM was evaluated using fluorescent measurements of the transmembrane potential sensitive dye 3,3′-Dipropylthiadicarbocyanine iodide (DiSC3(5))[69]. Bacteria (O.D.600 nm = 0.1) were washed by centrifugation at 10,000 RCF for 5 min, supernatant aspiration, and pellet resuspension in 5 mM HEPES containing 20 mM glucose, 50 mM KCl and 0.2 mM EDTA (pH = 7.2). This suspension was mixed with DiSC3(5) (400 µM in DMSO) to reach a final DiSC3(5) concentration of 4 µM and was incubated in the dark for 1 h at 37 °C with shaking. Then, 180 µl of this mixture were dispensed into black microtiter plates and fluorescence was recorded (excitation: 622 nm; emission: 670 nm) at 37 °C with shaking until baseline stabilization (BioTek Instruments Synergy HT; Winooski, VT, USA). Finally, 20 µl of HEPES containing serial twofold dilutions of lipopeptides were added and fluorescence was recorded for up to 30 min at the same conditions."}, "[3]": {"tested_on": "E. coli Ag100 (wild-type)", "assay": "MIC, broth microdilution, wild-type strain", "assay_type": "cell-based, Escherichia coli", "description": "as §1, §2"}, "[4]": {"tested_on": "S. Typhimurium 14028ΔAcrAB", "assay": "MIC, broth microdilution, efflux deficient mutant", "assay_type": "cell-based, Salmonella enterica serovar Typhimurium", "description": "as §1, §2"}, "E. coli 25922 [5]": {"tested_on": "E. coli 25922", "assay": "Outer membrane permeabilization, NPN fluorescence", "assay_type": "cell-based, Escherichia coli", "procedure": "Lipopeptides ability to permeabilize the OM was evaluated using fluorescent measurements of N-phenyl-1-naphthylamine (NPN)[67]. 200 µl of an over-night culture were diluted into 10 ml of fresh LB medium and incubated at 37 °C with shaking until reaching O.D.600 nm = 0.5. The culture was then centrifuged at 10,000 RCF for 3 min, the supernatant aspirated, and the pellet resuspended in equal volume of 5 mM HEPES containing 5 mM glucose (pH = 7.2). This suspension was then mixed with NPN (5 mM in acetone) to reach a final NPN concentration of 10 µM. Then, 190 µl of this mixture were dispensed into black microtiter plates, mixed with 10 µl of HEPES containing serial twofold dilutions of lipopeptides and fluorescence (excitation: 360 nm; emission: 460 nm) was recorded immediately for up to 10 min at 37 °C with shaking[29] (BioTek Instruments Synergy HT; Winooski, VT, USA). In a modified version of this assay, in which efflux was inhibited, bacteria (similarly prepared) were incubated with the lipopeptides in presence or absence of 100 µM CCCP for 5 min. Samples were then twice centrifuged at 10,000 RCF for 3 min, the supernatant aspirated, and the pellet resuspended in equal volume of 5 mM HEPES containing 20 mM glucose (pH = 7.2), so as to re-energize the efflux machinery. NPN was then added (final concentration of 10 µM) and fluorescence was recorded immediately thereafter."}, "E. coli Ag100a (ΔacrAB) [6]": {"tested_on": "E. coli Ag100a (ΔacrAB)", "assay": "MIC, broth microdilution, efflux deficient mutant", "assay_type": "cell-based, Escherichia coli", "conditions": "Ag100a", "description": "as §1, §2"}, "E. coli 25922 [7]": {"tested_on": "E. coli 25922", "conditions": "ref 23 (C14(ɷ5)OOc10O), ref 41 (PMBN); cited from earlier work", "description": "Towards better understanding the synergistic mechanism, we compared individual growth kinetics to determine contributions of each antimicrobial and assessed the type and extent of implicated membrane damages, assuming that low OM-permeability underlies the observed antibiotics inefficiencies by impeding their intracellular accumulation."}, "murine RBC": {"tested_on": "murine RBC", "assay": "Hemolysis", "assay_type": "cell-based", "conditions": "1% hematocrit murine RBC, 3 h, 37 °C", "procedure": "Permeabilization of red blood cells (RBC) was evaluated using absorbance measurements of extracellular hemoglobin. Serial twofold dilutions of lipopeptides were incubated with 1% hematocrit of murine RBC for 3 h at 37 °C with shaking. Samples were then centrifuged at 20,000 RCF for 5 min, and absorbance of the supernatants was measured at 450 nm (BioTek Instruments Synergy HT; Winooski, VT, USA). Percent hemolysis was then calculated by (AS − AN)/(AP − AN) × 100; where AS, AN, and AP represent the absorbance of the sample, negative control (PBS) and positive control (Milli-Q water), respectively. LC50 values were extracted from trend-lines generated for linear-regions of plots correlating lipopeptide concentrations and percent hemolysis."}, "P. aeruginosa": {"tested_on": "P. aeruginosa", "assay": "MIC, broth microdilution", "assay_type": "cell-based, Pseudomonas aeruginosa", "conditions": "broth microdilution in LB, 18–24 h, 37 °C; n = 3 strains", "description": "as §1\n(§3) MIC was determined according to the broth microdilution method: antimicrobials were subjected to serial twofold dilutions in LB medium, and incubated with 5 × 10^5 CFU/ml of bacteria (final volume of 200 µl) for 18–24 h at 37 °C. Then, O.D.620 nm was measured (BioTek Instruments Synergy HT; Winooski, VT, USA), and the MIC was defined as the lowest antimicrobial concentration for which no increase in O.D.620 nm was evident, compared to the untreated control."}, "[8]": {"tested_on": "S. Typhimurium 14028 (wild-type)", "conditions": "cited from earlier work", "description": "Table 2 Effect of RND pumps on growth-inhibitory activity. | column: MIC^a (µM) in LB / S. Typhimurium / Wild-Type"}, "A. baumannii": {"tested_on": "A. baumannii", "assay": "MIC, broth microdilution", "assay_type": "cell-based, Acinetobacter baumannii", "conditions": "broth microdilution in LB, 18–24 h, 37 °C; n = 1 strain", "description": "as §1, §3"}, "[9]": {"parameters": "method as in PMID 28329302", "conditions": "40 mg/kg dose; cited from earlier work"}, "RAW 264.7": {"tested_on": "RAW 264.7", "assay": "Cytotoxicity, Alamar blue", "assay_type": "cell-based, murine", "conditions": "24 h incubation, read-out: IC50 RAW 264.7 (50% inhibition of cells respiration)", "procedure": "(§4) Cell lines used in this study included murine RAW 264.7 macrophages and human embryonic kidney HEK-293FT cells (ATCC, Biological Industries, Beit Haemek, Israel). Cells were grown in Dulbecco’s modified eagle medium (DMEM) containing […] glucose, L-glutamine, sodium bicarbonate and sodium pyruvate, supplemented with 10% fetal bovine serum and pen-strep, at 37 °C and 5% CO2.\n(§5) Lipopeptides cytotoxicity was determined using fluorescent measurements of reduced resazurin. 2 × 10^4 cells were first cultured in 96-well plates over-night (final volume of 100 µl) at 37 °C and 5% CO2. Then, the medium was removed and cells were incubated for an additional 24 h with serial twofold dilutions of the lipopeptides in growth medium. Then, 10 µl of Alamar blue were added and plates were incubated for 3 h, after which fluorescence (excitation: 530 nm; emission: 590 nm) of the reduced resazurin was recorded (BioTek Instruments Synergy HT; Winooski, VT, USA)."}, "E. coli 25922 [10]": {"tested_on": "E. coli 25922", "conditions": "same assessment tools; cited from earlier work", "description": "To our knowledge, the finding of an adjuvant whose activity is enhanced—rather than repressed—after efflux, is hitherto unreported. One might ask, at this point: If the K-, O and B-based analogs are efflux substrates (as implied by MIC data, Table 2), how come only C10BBc12B is positively affected by efflux?"}, "E. coli": {"tested_on": "E. coli", "assay": "MIC, broth microdilution", "assay_type": "cell-based, Escherichia coli", "conditions": "broth microdilution in LB, 18–24 h, 37 °C; n = 4 strains; published data in bold (not discernible)", "description": "as §1, §3"}, "K. pneumoniae": {"tested_on": "K. pneumoniae", "assay": "MIC, broth microdilution", "assay_type": "cell-based, Klebsiella pneumoniae", "conditions": "broth microdilution in LB, 18–24 h, 37 °C; n = 2 strains", "description": "as §1, §3"}, "[11]": {"tested_on": "S. Typhimurium 14028ΔAcrAB", "conditions": "cited from earlier work", "description": "Table 2 Effect of RND pumps on growth-inhibitory activity. | column: MIC^a (µM) in LB / S. Typhimurium / Mutant"}, "[12]": {"tested_on": "E. coli Ag100 (wild-type)", "conditions": "cited from earlier work", "description": "Table 2 Effect of RND pumps on growth-inhibitory activity. | column: MIC^a (µM) in LB / E. coli / Wild-Type"}, "E. coli Ag100a (ΔacrAB) [13]": {"tested_on": "E. coli Ag100a (ΔacrAB)", "conditions": "cited from earlier work", "description": "Table 2 Effect of RND pumps on growth-inhibitory activity. | column: MIC^a (µM) in LB / E. coli / Mutant"}, "HEK-293FT": {"tested_on": "HEK-293FT", "assay": "Cytotoxicity, Alamar blue", "assay_type": "cell-based, human", "conditions": "24 h incubation, read-out: IC50 HEK-293FT (50% inhibition of cells respiration)", "procedure": "as §4, §5"}}, "note": "Read-outs that look alike come from different tables or passages of the source. Where a SMILES comes first, the peptide text is derived from it. [ ]: non-standard residue; d: D form. The star is where a group is joined. 12Ado = NCCCCCCCCCCCC(=O)O; Decanoyl = CCCCCCCCCC(=O)*; Orn = NCCC[C@H](N)C(=O)O", "data": [{"compound": "Polymyxin B [reference compound]", "values": [{"measurement": "MIC (µM) in LB, S. Typhimurium Wild-Type", "setting": "[1]", "result": 0.7, "unit": "µM"}, {"measurement": "CM depolarization (trans-membrane potential)", "setting": "E. coli 25922 [2]", "result": "rapid CM-depolarization"}, {"measurement": "MIC (µM) in LB, E. coli Wild-Type", "setting": "[3]", "result": 0.7, "unit": "µM"}, {"measurement": "MIC (µM) in LB, S. Typhimurium Mutant", "setting": "[4]", "result": 0.7, "unit": "µM"}, {"measurement": "reduction of NPN fluorescence by 10 mM MgCl2", "setting": "E. coli 25922 [5]", "result": "much less"}, {"measurement": "MIC (µM) in LB, E. coli Mutant", "setting": "E. coli Ag100a (ΔacrAB) [6]", "result": 0.7, "unit": "µM"}]}, {"compound": "polymyxin B nonapeptide [PMBN]", "values": [{"measurement": "effect of sub-inhibitory concentrations on bacterial growth in absence of antibiotics", "setting": "E. coli 25922 [7]", "result": "transiently inhibited bacterial growth"}]}, {"compound": "CCCCCCCCCC(=O)N[C@@H](CCCN)C(=O)N[C@@H](CCCN)C(=O)NCCCCCCCCCCCC(=O)N[C@@H](CCCN)C(N)=O", "note": "[C10OOc12O] (Decanoyl-[Orn][Orn][12Ado][Orn]-NH2)", "values": [{"measurement": "LC50 Erythrocytes (50% hemolysis)", "setting": "murine RBC", "result": "> 50", "unit": "µM"}, {"measurement": "MIC P. aeruginosa (n=3)", "setting": "P. aeruginosa", "result": "> 50", "unit": "µM"}, {"measurement": "MIC (µM) in LB, S. Typhimurium Wild-Type", "setting": "[8]", "result": "> 50", "unit": "µM"}, {"measurement": "MIC A. baumannii (n=1)", "setting": "A. baumannii", "result": "> 50", "unit": "µM"}, {"measurement": "mortality", "setting": "[9]", "result": "mortality of another mouse was recorded within an hour"}, {"measurement": "IC50", "setting": "RAW 264.7", "result": "> 50", "unit": "µM"}, {"measurement": "CM depolarization", "setting": "E. coli 25922 [10]", "result": "interact with the CM to the point of inducing its depolarization"}, {"measurement": "MIC E. coli (n=4)", "setting": "E. coli", "result": "≥ 50", "unit": "µM"}, {"measurement": "MIC K. pneumoniae (n=2)", "setting": "K. pneumoniae", "result": "> 50", "unit": "µM"}, {"measurement": "MIC (µM) in LB, S. Typhimurium Mutant", "setting": "[11]", "result": 6.2, "unit": "µM"}, {"measurement": "MIC (µM) in LB, E. coli Wild-Type", "setting": "[12]", "result": "> 50", "unit": "µM"}, {"measurement": "MIC (µM) in LB, E. coli Mutant", "setting": "E. coli Ag100a (ΔacrAB) [13]", "result": 6.2, "unit": "µM"}, {"measurement": "IC50", "setting": "HEK-293FT", "result": "> 50", "unit": "µM"}]}]}
